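Growth conditions: 96-well plates. Treatment: test compound, 48 hours, 5 concentrations. Analysis: linear interpolation between bracketing concentrations; unreached endpoints set to highest concentration. At the GI50, growth is halved.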 Calls of active or inactive are those of the source. Cut-off read from the data, not from the text of the source: active = GI50 up to about 1.1 µM and inactive = higher.
Assays:
Assay in all cases: growth of human tumour cells (NCI), 48 h
BT-549 = tested on: BT-549
TK-10 = tested on: TK-10
OVCAR-3 = tested on: OVCAR-3
HCT-15 = tested on: HCT-15
RPMI-8226 = tested on: RPMI-8226
SR = tested on: SR
EKVX = tested on: EKVX
M14 = tested on: M14
NCI/ADR-RES = tested on: NCI/ADR-RES
786-0 = tested on: 786-0
HOP-92 = tested on: HOP-92
Hs-578T = tested on: Hs-578T
MDA-N = tested on: MDA-N
MOLT-4 = tested on: MOLT-4
U-251 = tested on: U-251
COLO 205 = tested on: COLO 205
SK-OV-3 = tested on: SK-OV-3
LOX IMVI = tested on: LOX IMVI
SF-268 = tested on: SF-268
HCT-116 = tested on: HCT-116
SW-620 = tested on: SW-620
MDA-MB-231 = tested on: MDA-MB-231
IGROV-1 = tested on: IGROV-1
NCI-H522 = tested on: NCI-H522
PC-3 = tested on: PC-3
CCRF-CEM = tested on: CCRF-CEM
NCI-H460 = tested on: NCI-H460
HT-29 = tested on: HT-29
SK-MEL-28 = tested on: SK-MEL-28
A498 = tested on: A498
HCC 2998 = tested on: HCC 2998
DU-145 = tested on: DU-145
RXF 393 = tested on: RXF 393
T47D = tested on: T47D
CAKI-1 = tested on: CAKI-1
SK-MEL-2 = tested on: SK-MEL-2
UACC-257 = tested on: UACC-257
SF-539 = tested on: SF-539
Malme-3M = tested on: Malme-3M
A549 = tested on: A549
SNB-19 = tested on: SNB-19
K562 = tested on: K562
OVCAR-8 = tested on: OVCAR-8
KM12 = tested on: KM12
SF-295 = tested on: SF-295
OVCAR-4 = tested on: OVCAR-4
HL-60 = tested on: HL-60
HOP-62 = tested on: HOP-62
SK-MEL-5 = tested on: SK-MEL-5
UO-31 = tested on: UO-31
UACC-62 = tested on: UACC-62
NCI-H23 = tested on: NCI-H23
ACHN = tested on: ACHN
OVCAR-5 = tested on: OVCAR-5
MCF7 = tested on: MCF7
MDA-MB-435 = tested on: MDA-MB-435
NCI-H226 = tested on: NCI-H226
SN12C = tested on: SN12C

Measured: GI50

CC(=O)Oc1ccccc1/C=C/C(=O)/C=C/c1ccccc1OC(C)=O
2.09 µM: HCT-15
active: RPMI-8226 0.308 µM | SR 0.867 µM | LOX IMVI 0.64 µM | HCT-116 0.239 µM | SW-620 0.447 µM | CCRF-CEM 0.501 µM | RXF 393 126 nM | K562 0.429 µM | KM12 1.09 µM | HL-60 0.748 µM | MCF7 0.959 µM
inactive: BT-549 1.73 µM | TK-10 3.39 µM | OVCAR-3 1.66 µM | EKVX 1.79 µM | M14 1.95 µM | NCI/ADR-RES 3.33 µM | 786-0 1.79 µM | HOP-92 4.11 µM | Hs-578T 3.69 µM | MDA-N 1.91 µM | MOLT-4 1.36 µM | U-251 1.51 µM | COLO 205 1.89 µM | SK-OV-3 4.15 µM | SF-268 1.71 µM | MDA-MB-231 2.66 µM | IGROV-1 2 µM | NCI-H522 1.96 µM | PC-3 1.65 µM | NCI-H460 2.05 µM | HT-29 1.94 µM | SK-MEL-28 1.97 µM | A498 2.08 µM | HCC 2998 1.88 µM | DU-145 3.08 µM | T47D 3.49 µM | CAKI-1 3.75 µM | SK-MEL-2 3.79 µM | UACC-257 1.36 µM | SF-539 1.74 µM | Malme-3M 2.81 µM | A549 2.26 µM | SNB-19 2.39 µM | OVCAR-8 1.94 µM | SF-295 2.26 µM | OVCAR-4 2.38 µM | HOP-62 2.44 µM | SK-MEL-5 1.84 µM | UO-31 1.68 µM | UACC-62 1.64 µM | NCI-H23 1.73 µM | ACHN 1.8 µM | OVCAR-5 2.21 µM | MDA-MB-435 2.15 µM | NCI-H226 1.81 µM | SN12C 1.9 µM

COC(=O)CCc1ccc2c(c1)[C@H](C(=O)OC)[C@@H](c1ccc(O)cc1)O2
58.9 µM: HCT-15
inactive: BT-549 74.5 µM | TK-10 > 100 µM | OVCAR-3 > 100 µM | RPMI-8226 75.5 µM | SR 93.5 µM | EKVX > 100 µM | M14 > 100 µM | NCI/ADR-RES > 100 µM | 786-0 > 10 µM | HOP-92 > 100 µM | Hs-578T > 100 µM | MDA-N > 100 µM | MOLT-4 35.6 µM | U-251 > 100 µM | COLO 205 > 100 µM | SK-OV-3 > 100 µM | LOX IMVI > 100 µM | SF-268 > 100 µM | HCT-116 21.5 µM | SW-620 > 100 µM | MDA-MB-231 > 100 µM | IGROV-1 > 100 µM | NCI-H522 75.9 µM | PC-3 > 100 µM | CCRF-CEM 59.2 µM | NCI-H460 58.9 µM | HT-29 > 100 µM | SK-MEL-28 > 100 µM | A498 > 100 µM | HCC 2998 > 100 µM | DU-145 > 100 µM | T47D 78.2 µM | CAKI-1 > 100 µM | SK-MEL-2 > 100 µM | UACC-257 > 100 µM | SF-539 25.6 µM | Malme-3M > 100 µM | A549 > 100 µM | SNB-19 > 100 µM | K562 61.1 µM | OVCAR-8 > 100 µM | KM12 > 100 µM | SF-295 > 100 µM | OVCAR-4 > 100 µM | HL-60 90.2 µM | HOP-62 > 100 µM | SK-MEL-5 40.1 µM | UO-31 > 100 µM | UACC-62 > 100 µM | NCI-H23 71.6 µM | ACHN > 100 µM | OVCAR-5 > 100 µM | MCF7 72.9 µM | MDA-MB-435 > 100 µM | NCI-H226 25.5 µM | SN12C > 100 µM

— ChEMBL document CHEMBL1201862, “PubChem BioAssay data set” (2004)
